Assay results from publication PMC10532587, “An Investigation of Structure–Activity Relationships and Cell Death Mechanisms of the Marine Alkaloids Discorhabdins in Merkel Cell Carcinoma Cells” (Marine Drugs, 2023).
Where two headings read alike, the source gives them in different places.

Tests used:
[1] = test system: HaCaT; assay: Cell survival by CellTiterGlo, control cells; format: cell-based, human; conditions: for IC50: Homo sapiens, HaCaT; for AUC (arbitrary units) HaCaT: area under the dose-response curve, control cells
[2] = test system: MCC13; assay: Cell survival by CellTiterGlo, VN-MCC line MCC13; format: cell-based; conditions: for IC50: CellTiterGlo, normalized to DMSO; for AUC (arbitrary units) MCC13: area under the dose-response curve
[3] = test system: MCC26; assay: Cell survival by CellTiterGlo, VN-MCC line MCC26; format: cell-based; conditions: for IC50: CellTiterGlo, normalized to DMSO; for AUC (arbitrary units) MCC26: area under the dose-response curve
[4] = test system: UISO; assay: Cell survival by CellTiterGlo, VN-MCC line UISO; format: cell-based; conditions: for IC50: CellTiterGlo, normalized to DMSO; for AUC (arbitrary units) UISO: area under the dose-response curve
[5] = test system: MKL-1; assay: Cell survival by CellTiterGlo, VP-MCC line MKL-1; format: cell-based; conditions: VP-MCC; for IC50: MKL-1, CellTiterGlo, normalized to DMSO, read-out: IC50 (nM) MKL-1; for AUC (arbitrary units) MKL-1: area under the dose-response curve
[6] = test system: MKL-2; assay: Cell survival by CellTiterGlo, VP-MCC line MKL-2; format: cell-based; conditions: for IC50: CellTiterGlo, normalized to DMSO; for AUC (arbitrary units) MKL-2: area under the dose-response curve
[7] = test system: Waga; assay: Cell survival by CellTiterGlo, VP-MCC line Waga; format: cell-based; conditions: for IC50: CellTiterGlo, normalized to DMSO; for AUC (arbitrary units) WaGa: area under the dose-response curve
[8] = test system: control (HaCaT) and Merkel cell carcinoma cell lines; assay: Cell survival by CellTiterGlo, all seven cell lines; format: cell-based; conditions: MCC and control cell lines
Method: (§1) Three methods were employed for assessment of MCC and control cell survival/viability after discorhabdin treatment, two metabolic assays and a cell permeability assay. For all three methods, cells were plated in 384-well plates at 2500 cells/well and treated with various concentrations of discorhabdins for various time periods. CellTiterGlo^TM (Promega, Madison, WI, USA) measures cellular ATP content and was used to estimate potency of discorhabdins in cell viability assays as previously described. Continuous monitoring of metabolic activity was accomplished using a cellular reducing potential luminescence assay, the RealTime-Glo^TM MT Cell Viability Assay (Promega, Madison, WI, USA) according to manufacturer’s instructions. Loss of cell plasma membrane integrity was assessed using a cell-impermeant molecule that becomes fluorescent upon binding DNA [82] in parallel with apoptosis detection per manufacturer’s instructions (RealTimeGlo^TM Annexin V Apoptosis and Necrosis Assay-Promega). Two additional assays of apoptotic cell death were also used. Caspase activation in response to treatment of MCC cells by discorhabdins or bortezomib (as a positive control) was measured using the CaspaseGlo® 3/7 Assay (Promega, Madison, WI, USA) according to the manufacturer’s instructions at multiple time points. Inhibition of apoptotic cell death was investigated using pre-treatment of cells with for 1 h with the pan-caspase inhibitor Z-VAD-FMK (Enzo Life Sciences, Farmingdale, NY, USA) followed by treatment with discorhabdins or bortezomib and estimation of cell viability as outlined above.
(§2) In order to compare responses among all of the discorhabdins and cell lines (98 combinations), dose–response curves were generated using identical discorhabdin dilution series. GraphPad Prism 8 (San Diego, CA, USA) software was utilized to graph dose–response data and to calculate IC50 values and area under the dose–response curves (AUC) along with 95% confidence interval estimates using four-parameter logistic nonlinear regression analysis. For further analysis and comparisons, AUC for each cell line/discorhabdin pair was visualized in a heatmap generated in R version 1.3.1073 (R Core Team (2013). R: A language and environment for statistical computing. R Foundation for Statistical Computing, Vienna, Austria, http://www.R-project.org/ (accessed on 12 January 2023).
Figure S39: Activity of discorhabdins against M CC cell lines.
The indicated discorh abd ins were ass essed for th eir ability to affect surviv al of control (H aCaT) and Merkel cell carcino ma cell lines (VN-MCC: MCC13, MCC26, UISO and VP -MCC: MKL-1, MKL-2, Wag a). Cells were plat ed at 2500 cells/well and compounds the next day. Cell survival was estimated by CellTiterGlo (normalized to untreated (DMSO) cells on the same plate). Structures w ere o btained from the supplier and/or the PubChem database or as described in the text. Number in bold in ( ) refers to structures in Figure 1 in the text. Curves were plotted and IC50 values and 95% confidence interval calculated by GraphPad software. […]

[9] = test system: MCC cell lines; assay: Cell survival by CellTiterGlo, MCC cell lines together; format: cell-based; conditions: for averaged potency (IC50) across all MCC cell lines tested: average over MCC cell lines
Method: as §1, §2

[10] = test system: VP-MCC cell lines (MKL-1, MKL-2, and Waga); assay: Selectivity VP-MCC versus control cells (average AUC); format: cell-based
Text: as §2
Figure S41: Discorhabdi nselectivity
Discorhabdin selectivity for VP -MCC and VN- MCCcells was estimated by comparison of activity (average AUC) for each dis corhabdin against VP -MCC (panel A) or VN- MCC (panel B) cell lines compared to control cells . Discorhabdins were sort ed by selectivity from most to least selective. - fold dif fer ence = (av e VN -MCC or VP -MCC AUC/ control AUC). Error bars […]
(1 picture or pasted object on this page, not shown here)

[11] = test system: caspase-3; set-up: method as in PMID 9917313; conditions: cited from earlier work
[12] = test system: caspase-3/7; assay: Caspase-3/7 activation (CaspaseGlo 3/7) in UISO cells; format: cell-based; conditions: 8 or 24 h; normalized to DMSO control
Method: (§3) (a) Caspase activation. Cells were treated for 8 or 24 h with indicated discorhabdins or bortezomib. Caspase-3/7 activity was determined (Promega CaspaseGLO-3/7) and normalized to untreated (DMSO) control cells. Error bars represent sd (n = 4). (b). Apoptosis/necrosis. Cells were treated for up to 24 h with the indicated discorhabdins and assessed for Annexin binding and cell permeability using the Promega RealTime-Glo™ Annexin V Apoptosis and Necrosis Assay kit. Luminescence indicates Annexin binding, fluorescence indicates membrane permeability.
as §1, with “Inhibition of apoptotic cell death was investigated using pre-treatment of cells with for 1 h with the pan-caspase inhibitor Z-VAD-FMK (Enzo Life Sciences, Farmingdale, NY, USA) followed by treatment with discorhabdins or bortezomib and estimation of cell viability as outlined above.” left out

[13] = test system: caspase-3/7; assay: Caspase-3/7 activation (CaspaseGlo 3/7) in MKL-1 cells; format: cell-based; conditions: 8 or 24 h; normalized to DMSO control
Method: as §3
as §1, with “Inhibition of apoptotic cell death was investigated using pre-treatment of cells with for 1 h with the pan-caspase inhibitor Z-VAD-FMK (Enzo Life Sciences, Farmingdale, NY, USA) followed by treatment with discorhabdins or bortezomib and estimation of cell viability as outlined above.” left out

[14] = test system: MCC cells; assay: Cell death after pretreatment with pan-caspase inhibitor Z-VAD-FMK; format: cell-based; conditions: Z-VAD-FMK 40 µM, 1 h pretreatment; discorhabdins 10 µM, bortezomib 1 µM
Method: as §1, with “Inhibition of apoptotic cell death was investigated using pre-treatment of cells with for 1 h with the pan-caspase inhibitor Z-VAD-FMK (Enzo Life Sciences, Farmingdale, NY, USA) followed by treatment with discorhabdins or bortezomib and estimation of cell viability as outlined above.” left out

[15] = test system: UISO cells; assay: Mitochondrial membrane potential (JC-10) in UISO cells; format: cell-based; conditions: 10 µM, normalized to DMSO control
Method: (§4) Cells were treated with the indicated discorhabdins (10 µM) and assessed for mitochondrial membrane potential (MMP) using JC-10 ratiometric dye. JC-10 was added for the last hour of incubation. Cellular reducing potential was assessed using a RealTimeGlo MT Cell Viability kit, and cellular ATP levels using CellTiterGlo. All values were normalized to DMSO control. Error bars (n = 3–4) represent sd. See Figures S45 and S46 for additional cell line/discorhabdin combinations, concentrations, and time points for reducing potential and MMP, respectively.
(§5) Mitochondrial membrane potential (MMP) was assessed using the JC-10 ratiometric dye (Sigma, St. Louis, MO, USA). UISO or MKL-1 cells were treated in black-walled, clear-bottom 384-well plates (Corning Life Sciences, Durham, NC, USA) with discorhabdins or doxorubicin (Sigma, St. Louis, MO, USA) as a positive control for up to 24 h with JC-10 for the last 1 h of incubation. Red/green fluorescence signals were measured, the red/green ratio for each well was calculated and normalized to untreated (DMSO) control wells for the same cell line and incubation time to determine relative MMP.

[16] = test system: MKL-1 cells; assay: Mitochondrial membrane potential (JC-10) in MKL-1 cells; format: cell-based; conditions: 10 µM, normalized to DMSO control
Method: as §4, §5

[17] = test system: MCC cells; assay: Cellular reducing potential (RealTime-Glo MT Cell Viability); format: cell-based; conditions: 10 µM; normalized to DMSO control
Method: as §4
(§6) Three methods were employed for assessment of MCC and control cell survival/viability after discorhabdin treatment, two metabolic assays and a cell permeability assay. For all three methods, cells were plated in 384-well plates at 2500 cells/well and treated with various concentrations of discorhabdins for various time periods. […] Continuous monitoring of metabolic activity was accomplished using a cellular reducing potential luminescence assay, the RealTime-Glo^TM MT Cell Viability Assay (Promega, Madison, WI, USA) according to manufacturer’s instructions. Loss of cell plasma membrane integrity was assessed using a cell-impermeant molecule that becomes fluorescent upon binding DNA [82] in parallel with apoptosis detection per manufacturer’s instructions (RealTimeGlo^TM Annexin V Apoptosis and Necrosis Assay-Promega). […]

[18] = test system: MCC cells; assay: Cellular ATP content (CellTiterGlo), time course; format: cell-based; conditions: 10 µM, normalized to DMSO control
Method: as §4, §6

[19] = prostate cancer xenograft model; cited from earlier work
[20] = control skin cell line, CellTiterGlo, normalized to DMSO, read-out: IC50 (nM) HaCaT

SMILES: Cn1cc2c3c1C(=O)C1=C(C3=NCC2)C2(C=C(Br)C(=O)C(Br)=C2)CCN1 [Compound 17, discorhabdin P]
- IC50 [1, 20]: 1260 nM
- AUC (arbitrary units) HaCaT [1]: 150.9 arbitrary units
- IC50 [2]: 499 nM
- AUC (arbitrary units) MCC13 [2]: 64.76 arbitrary units
- IC50 [3]: 1210 nM
- AUC (arbitrary units) MCC26 [3]: 140.1 arbitrary units
- IC50 [4]: 292 nM
- AUC (arbitrary units) UISO [4]: 50.65 arbitrary units
- IC50 [5]: 68 nM
- AUC (arbitrary units) MKL-1 [5]: 7.146 arbitrary units
- IC50 [6]: 87 nM
- AUC (arbitrary units) MKL-2 [6]: 17.05 arbitrary units
- IC50 [7]: 106 nM
- AUC (arbitrary units) WaGa [7]: 14.11 arbitrary units
- activity on cell viability, in words [8]: more potent than discorhabdin C in all seven cell lines
- averaged potency (IC50) across all MCC cell lines tested [9]: sub-micromolar
- increased activity against VP-MCC compared to the control [10]: > 10 fold
- caspase-3 inhibition [11]: reported to inhibit caspase-3

SMILES: CC(C)C[C@H](NC(=O)[C@H](Cc1ccccc1)NC(=O)c1cnccn1)B(O)O [bortezomib, reference compound]
- caspase-3/7 activation, UISO [12]: robustly activates caspase
- caspase-3/7 activation, MKL-1 [13]: robustly activates caspase
- effect of Z-VAD-FMK pretreatment on induced MCC cell death [14]: reduced bortezomib-induced

SMILES: O=C1C2=C3C4=[N+](CCc5c[nH]c1c54)[C@@H]1C(=O)C=C4S[C@@H](C[C@@]43[C@H]1O)N2 [Compound 12, (−)-(1R,2S,6R,8S) discorhabdin L]
- IC50 [1, 20]: 2550 nM
- AUC (arbitrary units) HaCaT [1]: 290.4 arbitrary units
- IC50 [2]: 466 nM
- AUC (arbitrary units) MCC13 [2]: 93.66 arbitrary units
- IC50 [3]: 1130 nM
- AUC (arbitrary units) MCC26 [3]: 140.6 arbitrary units
- IC50 [4]: 660 nM
- AUC (arbitrary units) UISO [4]: 103 arbitrary units
- IC50 [5]: 83 nM
- AUC (arbitrary units) MKL-1 [5]: 13.23 arbitrary units
- IC50 [6]: 245 nM
- AUC (arbitrary units) MKL-2 [6]: 50.71 arbitrary units
- IC50 [7]: 440 nM
- AUC (arbitrary units) WaGa [7]: 55.36 arbitrary units
- averaged potency (IC50) across all MCC cell lines tested [9]: sub-micromolar
- caspase-3/7 activation, UISO [12]: lack of caspase-3/7 activation
- caspase-3/7 activation, MKL-1 [13]: lack of caspase-3/7 activation
- mitochondrial membrane potential (MMP), UISO [15]: significantly reduced
- mitochondrial membrane potential (MMP), MKL-1 [16]: significantly reduced
- cellular reducing potential [17]: dropped significantly
- cellular ATP content [18]: loss of cellular ATP content was dramatic and rapid
- in vivo toxicity in animals [19]: minimal in vivo toxicity

SMILES: O=C1C=C2S[C@H]3C[C@]2(C=C1Br)C1=C(N3)C(=O)c2[nH]cc3c2C1=NCC3 [Compound 2, (+)-(6S,8S) discorhabdin B]
- IC50 [1, 20]: 1040 nM
- IC50 ([1]; read-out: IC50 for control cells): ≤ 1000 nM
- AUC (arbitrary units) HaCaT [1]: 133.9 arbitrary units
- IC50 [2]: 426 nM
- AUC (arbitrary units) MCC13 [2]: 51.68 arbitrary units
- IC50 [3]: 731 nM
- AUC (arbitrary units) MCC26 [3]: 83.94 arbitrary units
- IC50 [4]: 331 nM
- AUC (arbitrary units) UISO [4]: 39.51 arbitrary units
- IC50 [5]: 25 nM
- AUC (arbitrary units) MKL-1 [5]: 3.635 arbitrary units
- IC50 [6]: 90 nM
- AUC (arbitrary units) MKL-2 [6]: 14.49 arbitrary units
- IC50 [7]: 75 nM
- AUC (arbitrary units) WaGa [7]: 9.624 arbitrary units
- activity on cell viability, in words [8]: comparable activity against MCC and control cell lines
- averaged potency (IC50) across all MCC cell lines tested [9]: sub-micromolar
- fold more active than discorhabdin Q (3) against MCC cells ([9]; comparator discorhabdin Q (3)): > 10 fold
- fold more active against MCC cells compared to 3 ([9]; comparator printed as 3, sentence is about discorhabdin G*/I (4)): 3 fold
- increased activity against VP-MCC compared to the control [10]: > 10 fold
- caspase-3/7 activation, UISO [12]: lack of caspase-3/7 activation
- caspase-3/7 activation, MKL-1 [13]: lack of caspase-3/7 activation
- mitochondrial membrane potential (MMP), UISO [15]: significantly reduced
- mitochondrial membrane potential (MMP), MKL-1 [16]: significantly reduced
- cellular reducing potential [17]: dropped significantly
- cellular ATP content [18]: loss of cellular ATP content was dramatic and rapid
